Assay [1] relates to isolated thymopoietin cell surface receptor protein from CEM cells. The conditions noted are these: for Displacement of 125I-TP relative to that caused by thymopoietin self-displacement: at equivalent concentrations, 2.3×10^-10 M 125I-TP, 4 μg receptor protein, with TP 37-45 nonapeptide, 12 h; for Displacement of 125I-TP, in words: comparison peptides, competition experiments. Background: Loss of bound radioactivity is the signal in a displacement assay; it reports binding, not function.

Another assay has as its system intact CEM cell. In words: Cyclic-GMP assay. Conditions: for Concentration of c-GMP Produced: CEM cells, 4-5 min, 37° C.; for Result on the cyclic-GMP assay in words: in comparison with thymopentin. The format is cell-based, human. From the text:
This biological activity is evidenced by an assay measuring induction of cyclic-GMP production in a human T-cell line in comparison with thymopoietin. The induction of c-GMP production by a test peptide in this assay indicates the ability of the test peptide to bind to the thymopoietin receptor site on the cell and induce thymopoietin-like biological activity. […] Because of the expense of preparing peptides and the rapid degradation of peptides often observed in living systems, peptides such as those herein which have increased potency are greatly prized.
This assay measures the ability of the test peptide to bind to the cell membrane receptor of the intact CEM cell and selectively stimulate production of cyclic-GMP, as does thymopoietin itself.
The CEM cell line was obtained from the American Type Culture Collection and was cultured in RPMI-1640 medium supplemented with 10% heat-inactivated fetal bovine serum, 10% heat-inactivated horse serum, 2 mM L-glutamine, and 50 µg/ml gentamycin at 37° C. in a humid atmosphere containing 5 percent CO2, to a final density of 3-4×10^6 cells/ml. At this concentration, the cells were in the early stationary phase of the growth curve and were judged greater than 90% viable by trypan blue exclusion. The cells were grown for four days and harvested. After harvesting, the cells were washed three times in PBS and were resuspended in RPMI-1640 medium at a concentration of 3.12×10^7 cells/ml. After the cells had been allowed to equilibrate at 37° C. for 30 min, various concentrations of the test peptides were added in a volume of 25 μl of medium to 1 ml of cells, the initial concentration of test compound added being selected to yield the desired final concentration of test peptide in the medium. The test peptide was mixed instantly with the cell suspension. The incubation was allowed to proceed in a shaking water bath at 37° C. for 4-5 min and was then terminated by addition of ice-cold trichloroacetic acid (10%; 1 ml).
The cells in TCA were then homogenized and sonicated to release cyclic nucleotide. The resulting suspension was centrifuged at 3000 g for 20 min at 4° C. and the resulting precipitate was dissolved in 0.1N NaOH and sonicated for a further 30 minutes, after which the protein content was determined by the method of Cadman, et al., Anal. Biochem., 96, 21-23 (1979). The TCA was removed from the supernatant fraction by extracting four times with 5 ml of water-saturated diethyl ether. After the final extraction, the remaining traces of ether were removed from the supernatant fraction by heating it for 10 min in a 50° C. water bath. After lyophilization of the extracted supernatant fraction, it was reconstituted in 50 mM acetate buffer, ph 6.2, for radioimmunoassay of cyclic nucleotide using the assay kit NEX-133, New England Nuclear, Boston, MA 02113.
A conventional competition radioimmunoassay against radio labelled cyclic GMP was conducted to determine the amount of cyclic GMP induced by each concentration of test peptide. Results are shown in FIG. 1 and in the following table, in which representative subject peptides have been assayed in comparison with thymopentin (designated "TP-5") and a "nonsense" peptide H-ASP-ARG-TYR-LYS-VAL-OH.

[2] abbreviates: Concentration of Peptide 10^0 μg/ml.
Where [3] appears, read: Concentration of Peptide 10^1 μg/ml.
The mark [4] stands for this setting: Concentration of Peptide 10^3 μg/ml.
Setting [5] is: Concentration of Peptide 10^4 μg/ml.

Non-standard residues stand in square brackets, D forms with d. Residues, ends and D or L forms follow the SMILES beside them. No end group written: not given here. Aib = CC(C)(N)C(=O)O

For the compound `CC(C)[C@H](NC(=O)[C@H](CC(=O)O)NC(=O)[C@@H]1CCCN1C(=O)[C@@H](N)CCCNC(=N)N)C(=O)N[C@@H](Cc1ccccc1)C(=O)O` [H--ARG--PRO--ASP--VAL--PHE--OH, Arginyl-Prolyl-Aspartyl-Valyl-Phenylalanine] (H-RPDVF-OH), the “Displacement of 125I-TP relative to that caused by thymopoietin self-displacement” value in assay [1] is “at least 50%”. Also, the entries for the “Concentration of c-GMP Produced” value with intact CEM cell (setting [2]) and in the assay with intact CEM cell (setting [3]) were 0 picomoles/ml and 12 picomoles/ml, respectively.
Regarding `CC(C)[C@H](NC(=O)[C@H](CCCCN)NC(=O)[C@H](Cc1ccc(O)cc1)NC(=O)[C@H](CCCNC(=N)N)NC(=O)[C@@H](N)CC(=O)O)C(=O)O` [H--ASP--ARG--TYR--LYS--VAL--OH, H-ASP-ARG-TYR-LYS-VAL-OH, reference compound] (H-DRYKV-OH), the “Concentration of c-GMP Produced” value in the assay on intact CEM cell (setting [4]), in the assay with intact CEM cell (setting [5]) and in the assay on intact CEM cell (Concentration of Peptide 10^5 μg/ml) was 0 picomoles/ml each time.
`CC(C)[C@H](NC(=O)[C@H](CC(=O)O)NC(=O)[C@H](CCCCN)NC(=O)[C@@H](N)CCCNC(=N)N)C(=O)N[C@@H](Cc1c[nH]cn1)C(=O)O` [H-ARG-LYS-ASP-VAL-HIS-OH, Arginyl-Lysyl-Aspartyl-Valyl-Histidine] (H-RKDVH-OH): in assay [1], the “Displacement of 125I-TP relative to that caused by thymopoietin self-displacement” value was “at least 50%”. The “Concentration of c-GMP Produced” value in the assay with intact CEM cell (setting [2]) is listed as 0 picomoles/ml; with intact CEM cell (setting [3]), 9 picomoles/ml.
The like results for `CC(C)[C@H](NC(=O)[C@H](CC(=O)O)NC(=O)[C@H](CCCCN)NC(=O)[C@@H](N)CCCNC(=N)N)C(=O)N[C@@H](Cc1ccccc1)C(=O)O` [H-ARG-LYS-ASP-VAL-PHE-OH, Arginyl-Lysyl-Aspartyl-Valyl-Phenylalanine] (H-RKDVF-OH) were, in that order, “at least 50%”, 6 picomoles/ml and 9 picomoles/ml.
Regarding `CC(C)[C@H](NC(=O)[C@H](CC(=O)O)NC(=O)[C@H](CCCCN)NC(=O)[C@@H](N)CCCNC(=N)N)C(=O)N[C@@H](Cc1c[nH]c2ccccc12)C(N)=O` [H-ARG-LYS-ASP-VAL-TRP-NH2, Arginyl-Lysyl-Aspartyl-Valyl-Tryptophan amide] (H-RKDVW-NH2), the “Displacement of 125I-TP relative to that caused by thymopoietin self-displacement” value in assay [1] was “at least 50%”. Also, in the assay on intact CEM cell, the “Result on the cyclic-GMP assay in words” value is recorded as “superior results”.
For `CC(C)[C@H](NC(=O)[C@H](CC(=O)O)NC(=O)[C@H](CCCCN)NC(=O)[C@@H](N)CCCNC(=N)N)C(=O)N[C@@H](Cc1c[nH]c2ccccc12)C(=O)O` [H-ARG-LYS-ASP-VAL-TRP-OH, Arginyl-Lysyl-Aspartyl-Valyl-Tryptophan] (H-RKDVW-OH), in that order: “at least 50%” and “superior results”.
Take `CC(=O)N[C@@H](CCCNC(=N)N)C(=O)NC(C)(C)C(=O)N[C@@H](CC(=O)O)C(=O)N[C@H](C(=O)N[C@@H](Cc1ccccc1)C(N)=O)C(C)C` [N-α-acetyl-ARG-AIB-ASP-VAL-PHE-NH2, Acetyl-Arginyl-α-Aminoisobutyryl-Aspartyl-Valyl-Phenylalaminamide] (Ac-R[Aib]DVF-NH2): the “Result on the cyclic-GMP assay in words” value with intact CEM cell is recorded as “superior results”.
As to `CC(=O)N[C@@H](CCCNC(=N)N)C(=O)N1CCC[C@H]1C(=O)N[C@@H](CC(=O)O)C(=O)N[C@H](C(=O)N[C@@H](Cc1ccccc1)C(N)=O)C(C)C` [N-α-acetyl-ARG-PRO-ASP-VAL-PHE-NH2, Acetyl-Arginyl-Prolyl-Aspartyl-Valyl-Phenylalanine-amide] (Ac-RPDVF-NH2), the “Result on the cyclic-GMP assay in words” value in the assay on intact CEM cell is given as “superior results”.
In the case of `CC(=O)N[C@@H](CCCNC(=N)N)C(=O)N1CCC[C@H]1C(=O)N[C@@H](CC(=O)O)C(=O)N[C@H](C(=O)N[C@@H](Cc1ccccc1)C(=O)O)C(C)C` [N-α-acetyl-ARG-PRO-ASP-VAL-PHE-OH, N^α -Acetyl-Arginyl-Prolyl-Aspartyl-Valyl-Phenylaline] (Ac-RPDVF-OH), the “Concentration of c-GMP Produced” value with intact CEM cell (setting [2]) was determined as 7 picomoles/ml; in the assay on intact CEM cell (setting [3]), 15 picomoles/ml.
For `CC(C)[C@H](NC(=O)[C@H](CC(=O)O)NC(=O)[C@H](CCCCN)NC(=O)[C@@H](N)CCCN=C(N)N)C(=O)N[C@@H](Cc1ccc(O)cc1)C(=O)O` [TP-5, H--ARG--LYS--ASP--VAL--TYR--OH, reference compound] (H-RKDVY-OH), the “Concentration of c-GMP Produced” value is reported as 0 picomoles/ml with intact CEM cell (setting [2]); 4.5 picomoles/ml with intact CEM cell (setting [3]); 9 picomoles/ml in the assay with intact CEM cell (Concentration of Peptide 10^2 μg/ml); 12 picomoles/ml with intact CEM cell (setting [4]); 14 picomoles/ml in the assay with intact CEM cell (setting [5]).
Turning to `C[C@H](N)C(=O)NCC(=O)N[C@H]1CSSC[C@@H](C(=O)O)NC(=O)[C@H](CO)NC(=O)[C@H]([C@@H](C)O)NC(=O)[C@H](Cc2ccccc2)NC(=O)[C@H]([C@@H](C)O)NC(=O)[C@H](CCCCN)NC(=O)[C@H](Cc2c[nH]c3ccccc23)NC(=O)[C@H](Cc2ccccc2)NC(=O)[C@H](Cc2ccccc2)NC(=O)[C@H](CC(N)=O)NC(=O)[C@H](CCCCN)NC1=O` [somatostatin], in assay [1], the “Displacement of 125I-TP, in words” value is “no detectable displacement”.
As to “N^α -Acetyl-Arginyl-3,4-dehydro-Prolyl-Aspartyl-Valyl-Tyrosineamide”, the “Result on the cyclic-GMP assay in words” value with intact CEM cell is “superior results”.
“adrenocorticotropic hormone (SYSMEHFRWGKPVGKKRRPVKVYPNGAEDESAEAFPLEF; Corticotropin; UniProt P01189 138-176, looked up) [ACTH]”: in assay [1], the “Displacement of 125I-TP, in words” value is listed as “no detectable displacement”.
Same read-out and setting: the value for “corticotropin-releasing factor (SEEPPISLDLTFHLLREVLEMARAEQLAQQAHSNRKLMEII; ends and bridges not checked; UniProt P06850 154-194, looked up) [CRF]” was “no detectable displacement”.
Still for that read-out and setting: the entry for facteur thymique serique [FTS] is “no detectable displacement”; for growth hormone it is “no detectable displacement”; for ubiquitin it is “no detectable displacement”.
The same measure, in the same setting: the value for “β-endorphin (YGGFMTSEKSQTPLVTLFKNAIIKNAYKKGE; Beta-endorphin; UniProt P01189 237-267, looked up)” was “no detectable displacement”.

For the origin of these results see patent US4629723A, “Potent thymopentin analogs” (Ortho Pharmaceutical Corporation, priority 1984, dated 1986).
